From US20110105509A1 (Wyeth, LLC, priority 2009, published 2011)

Target: T1, CRTH2 (Homo sapiens, UniProt Q9Y5Y4)
T1 construct: expressed in transfected cells; host or cells: CHO cells
T1 sequence (Q9Y5Y4 1-395): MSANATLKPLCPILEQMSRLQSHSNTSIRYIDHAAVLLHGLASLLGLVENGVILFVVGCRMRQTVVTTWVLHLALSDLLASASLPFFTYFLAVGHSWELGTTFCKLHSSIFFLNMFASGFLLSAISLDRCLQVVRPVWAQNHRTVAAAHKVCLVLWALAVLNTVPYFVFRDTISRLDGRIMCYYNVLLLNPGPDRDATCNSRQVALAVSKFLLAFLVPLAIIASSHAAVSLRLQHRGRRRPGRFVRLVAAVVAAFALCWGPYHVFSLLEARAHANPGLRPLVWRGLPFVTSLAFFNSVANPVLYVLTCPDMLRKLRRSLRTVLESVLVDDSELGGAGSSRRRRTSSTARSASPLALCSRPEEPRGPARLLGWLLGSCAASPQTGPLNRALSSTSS
Experiment: FRET based competitive immunoassay (cAMP) in CRTH2 expressing CHO cells
Type: cell-based
Conditions: CRTH2 expressing CHO cells incubated with forskolin and PGD2; Eu3+ cryptate-labeled anti-cAMP and d2-labeled cAMP
Method: FRET Assay: To evaluate potency compounds were tested in a FRET based competitive immunoassay in which CRTH2 expressing CHO cells were incubated in the presence of forskolin and PGD2 along with Eu3+ cryptate-labeled anti-cAMP and d2-labeled cAMP.

Structure (SMILES) | IC50
Cc1c(-c2nn(Cc3c(F)cccc3F)c(=O)c3ccccc23)c2cc(Cl)ccc2n1CC(=O)O [Example 101, 2-(5-chloro-3-(3-(2,6-difluorobenzyl)-4-oxo-3,4-dihydrophthalazin-1-yl)-2-methyl-1H-indol-1-yl)acetic acid] | 10 nM
Cc1c(-c2nn(Cc3ccc(OC(F)(F)F)cc3)c(=O)c3ccccc23)c2cc(Cl)ccc2n1CC(=O)O [Example 102, 2-(5-chloro-2-methyl-3-(4-oxo-3-(4-(trifluoromethoxy)benzyl)-3,4-dihydrophthalazin-1-yl)-1H-indol-1-yl)acetic acid] | 27 nM
Cc1c(-c2nn(Cc3ccc4ccccc4n3)c(=O)c3ccccc23)c2cc(Cl)ccc2n1CC(=O)O [Example 103, 2-(5-chloro-2-methyl-3-(4-oxo-3-(quinolin-2-ylmethyl)-3,4-dihydro-phthalazin-1-yl)-1H-indol-1-yl)acetic acid] | 11 nM
Cc1cc(Cn2nc(-c3c(C)n(CC(=O)O)c4ccc(Cl)cc34)c3ccccc3c2=O)c2ccccc2n1 [Example 104, 2-(5-chloro-2-methyl-3-(3-((2-methylquinolin-4-yl)methyl)-4-oxo-3,4-dihydro-phthalazin-1-yl)-1H-indol-1-yl)acetic acid] | 10 nM
Cc1c(-c2nn(C)c(=O)c3ccccc23)c2cc(Cl)ccc2n1CC(=O)O [Example 105, 2-(5-chloro-2-methyl-3-(3-methyl-4-oxo-3,4-dihydrophthalazin-1-yl)-1H-indol-1-yl)-acetic acid] | 121 nM
CCn1nc(-c2c(C)n(CC(=O)O)c3ccc(Cl)cc23)c2ccccc2c1=O [Example 106, 2-(5-Chloro-3-(3-ethyl-4-oxo-3,4-dihydrophthalazin-1-yl)-2-methyl-1H-indol-1-yl)acetic acid] | 23 nM
Cc1c(-c2nn(CC3CC3)c(=O)c3ccccc23)c2cc(Cl)ccc2n1CC(=O)O [Example 108, 2-(5-chloro-3-(3-(cyclopropylmethyl)-4-oxo-3,4-dihydrophthalazin-1-yl)-2-methyl-1H-indol-1-yl)acetic acid] | 22 nM
Cc1c(-c2nn(CC(F)(F)F)c(=O)c3ccccc23)c2cc(Cl)ccc2n1CC(=O)O [Example 109, 2-(5-chloro-2-methyl-3-(4-oxo-3-(2,2,2-trifluoroethyl)-3,4-dihydro-phthalazin-1-yl)-1H-indol-1-yl)acetic acid] | 42 nM
Cc1c(-c2nn(Cc3nc4ccccc4s3)c(=O)c3ccccc23)c2cc(F)ccc2n1CC(=O)O [Example 110, 2-(3-(3-(Benzo[d]thiazol-2-ylmethyl)-4-oxo-3,4-dihydrophthalazin-1-yl)-5-fluoro-2-methyl-1H-indol-1-yl)acetic acid] | 7 nM
Cc1c(-c2nn(Cc3ccc(F)cc3)c(=O)c3ccccc23)c2cc(F)ccc2n1CC(=O)O [Example 111, 2-(5-fluoro-3-(3-(4-fluorobenzyl)-4-oxo-3,4-dihydrophthalazin-1-yl)-2-methyl-1H-indol-1-yl)acetic acid] | > 20 nM
Cc1c(-c2nn(Cc3cccc(F)c3F)c(=O)c3ccccc23)c2cc(F)ccc2n1CC(=O)O [Example 112, 2-(3-(3-(2,3-difluorobenzyl)-4-oxo-3,4-dihydrophthalazin-1-yl)-5-fluoro-2-methyl-1H-indol-1-yl)acetic acid] | 19 nM
Cc1c(-c2nn(Cc3ccccc3F)c(=O)c3ccccc23)c2cc(F)ccc2n1CC(=O)O [Example 113, 2-(5-fluoro-3-(3-(2-fluorobenzyl)-4-oxo-3,4-dihydrophthalazin-1-yl)-2-methyl-1H-indol-1-yl)acetic acid] | 14 nM
Cc1c(-c2nn(Cc3nc4cc(F)ccc4s3)c(=O)c3ccccc23)c2cc(F)ccc2n1CC(=O)O [Example 114, 2-(5-fluoro-3-(3-((5-fluorobenzo[d]thiazol-2-yl)methyl)-4-oxo-3,4-dihydro-phthalazin-1-yl)-2-methyl-1H-indol-1-yl)acetic acid] | 13 nM
Cc1c(-c2nn(Cc3nc4cc(C(F)(F)F)ccc4s3)c(=O)c3ccccc23)c2cc(F)ccc2n1CC(=O)O [Example 115, 2-(5-fluoro-2-methyl-3-(4-oxo-3-((5-(trifluoromethyl)benzo[d]thiazol-2-yl)-methyl)-3,4-dihydrophthalazin-1-yl)-1H-indol-1-yl)acetic acid] | 64 nM
Cc1c(-c2nn(Cc3c(F)cccc3F)c(=O)c3ccccc23)c2cc(F)ccc2n1CC(=O)O [Example 116, 2-(3-(3-(2,6-difluorobenzyl)-4-oxo-3,4-dihydrophthalazin-1-yl)-5-fluoro-2-methyl-1H-indol-1-yl)acetic acid] | 7 nM
Cc1c(-c2nn(Cc3ccc(OC(F)(F)F)cc3)c(=O)c3ccccc23)c2cc(F)ccc2n1CC(=O)O [Example 117, 2-(5-fluoro-2-methyl-3-(4-oxo-3-(4-(trifluoromethoxy)benzyl)-3,4-dihydro-phthalazin-1-yl)-1H-indol-1-yl)acetic acid] | 22 nM
Cc1c(-c2nn(Cc3ccc4ccccc4n3)c(=O)c3ccccc23)c2cc(F)ccc2n1CC(=O)O [Example 118, 2-(5-fluoro-2-methyl-3-(4-oxo-3-(quinolin-2-ylmethyl)-3,4-dihydro-phthalazin-1-yl)-1H-indol-1-yl)acetic acid] | 9 nM
Cc1cc(Cn2nc(-c3c(C)n(CC(=O)O)c4ccc(F)cc34)c3ccccc3c2=O)c2ccccc2n1 [Example 119, 2-(5-fluoro-2-methyl-3-(3-((2-methylquinolin-4-yl)methyl)-4-oxo-3,4-dihydro-phthalazin-1-yl)-1H-indol-1-yl)acetic acid] | 17 nM
Cc1c(-c2nn(C)c(=O)c3ccccc23)c2cc(F)ccc2n1CC(=O)O [Example 120, 2-(5-fluoro-2-methyl-3-(3-methyl-4-oxo-3,4-dihydrophthalazin-1-yl)-1H-indol-1-yl)acetic acid] | 201 nM
CCn1nc(-c2c(C)n(CC(=O)O)c3ccc(F)cc23)c2ccccc2c1=O [Example 121, 2-(3-(3-ethyl-4-oxo-3,4-dihydrophthalazin-1-yl)-5-fluoro-2-methyl-1H-indol-1-yl)acetic acid] | 55 nM
Cc1c(-c2nn(CC3CC3)c(=O)c3ccccc23)c2cc(F)ccc2n1CC(=O)O [Example 122, 2-(3-(3-(cyclopropylmethyl)-4-oxo-3,4-dihydrophthalazin-1-yl)-5-fluoro-2-methyl-1H-indol-1-yl)acetic acid] | 27 nM
Cc1c(-c2nn(C3CC3)c(=O)c3ccccc23)c2cc(F)ccc2n1CC(=O)O [Example 123, 2-(3-(3-cyclopropyl-4-oxo-3,4-dihydrophthalazin-1-yl)-5-fluoro-2-methyl-1H-indol-1-yl)acetic acid] | 22 nM
Cc1c(-c2nn(CC(F)(F)F)c(=O)c3ccccc23)c2cc(F)ccc2n1CC(=O)O [Example 124, 2-(5-fluoro-2-methyl-3-(4-oxo-3-(2,2,2-trifluoroethyl)-3,4-dihydro-phthalazin-1-yl)-1H-indol-1-yl)acetic acid] | 8 nM
Cc1c(-c2nn(CCCC(F)(F)F)c(=O)c3ccccc23)c2cc(F)ccc2n1CC(=O)O [Example 125, 2-(5-fluoro-2-methyl-3-(4-oxo-3-(4,4,4-trifluorobutyl)-3,4-dihydro-phthalazin-1-yl)-1H-indol-1-yl)acetic acid] | 4 nM
